Assays:
total cholesterol = assay: Anti-hyperlipemia activity, total cholesterol in blood; format: in vivo, rabbit (Japanese white male); details: oral, 300 mg/kg once; for Reduction of cholesterol level after 3 hrs.: negative = raising
Procedure, shortened: (§1)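 Male Japanese white rabbits fed 1% cholesterol diet for 3 months received compound once orally at 300 mg/kg in water. Ear-vein blood: cholesterol by enzymatic method, beta-lipoprotein by colorimetry; values are change from predose at 3 or 6 h.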

[1] = test system: pseudo-escaping reaction to tail pressure; assay: Analgetic activity against mechanical stimulation of pressure; format: in vivo, mouse (ICR female); details: oral, 1000 mg/kg
exudation = assay: Anti-exudation activity (air pouch, croton oil); format: in vivo, rat; details: 5 days; for inhibition in vivo at 1000 mg/kg/day: Rattus norvegicus, po, 144 h, read-out: I.R. against exudation; for I.R. against exudation: oral, 1000 mg/kg/day
Procedure, shortened: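 Rats, 6 per group, given subcutaneous dorsal air pouch injected with 0.5 ml sesame oil containing 1% croton oil. Compounds dosed orally in distilled water at 1000 mg/kg/day for five days; pouch exudate volume measured on day 6 and expressed as percent inhibition of exudation.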

[2] = test system: pyrexia (Saccharomyces cerevisiae); assay: Anti-pyrexia activity (yeast-induced); format: in vivo; details: Rattus norvegicus, oral, read-out: Rate of inhibiting pyrexia (I.R.)
Procedure, shortened: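 Rats (n=6/group) received subcutaneous 20% Saccharomyces cerevisiae suspension, fasted 10 h, then dosed orally with 1000 mg/kg compound in distilled water. Rectal temperature was tracked at set intervals and the lowest value taken; inhibition rate computed against non-yeast and yeast-only control temperatures.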

in vivo = details: mouse, in vivo, po, mice, 7 days observation, read-out: LD50, acute oral toxicity
carrageenin edema = assay: Anti-Carrageenin edema activity; format: in vivo, rat; details: 1000 mg/kg once; for inhibition in vivo at 1000 mg/kg: Rattus norvegicus, po, read-out: I.R. against carrageenin edema; for I.R. against carrageenin edema: oral, 1000 mg/kg
Procedure, shortened: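 Rats (10 per group) given compound orally once at 1000 mg/kg in distilled water, then 0.1 ml 1% carrageenin injected into right hind foot pad. Foot pad thickness measured at intervals; inhibition rate (%) = (1−T/C)×100 versus carrageenin-only animals.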

blood pressure = assay: Anti-hypertension activity (reduction of blood pressure); format: in vivo, rat (spontaneous hypertension); details: oral, 300 mg/kg
Procedure, shortened: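 Spontaneously hypertensive rats dosed orally at 300 mg/kg in distilled water. Blood pressure measured at 3 and 6 h. Activity taken as change from the value just before dosing.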

beta-lipoprotein = assay: Anti-hyperlipemia activity, beta-lipoprotein in blood; format: in vivo, rabbit (Japanese white male); details: oral, 300 mg/kg once
Procedure, shortened: as §1

level of blood sugar = assay: Anti-hyperglycemia activity (reduction of blood sugar level); format: in vivo, rat (Wistar, streptozotocin); details: oral, 300 mg/kg
Procedure, shortened: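 Streptozotocin-diabetic Wistar rats (60 mg/kg i.p., relapsed hyperglycemia after insulin) given compounds orally at 300 mg/kg in distilled water. Blood sugar measured in samples taken 3 and 6 h post-dose.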

Sarcoma-180 = assay: Anti-tumour activity against Sarcoma-180; format: in vivo, mouse (ICR-JCL); details: 10 times every other day, tumour weight on 25th day; for inhibition in vivo at 500 mg/kg: Mus musculus, Sarcoma-180, po, 600 h, read-out: Antitumour activity, inhibiting rate (I.R.); for Antitumour activity, inhibiting rate (I.R.): oral, 500 mg/kg/time, 500 mg/kg
Procedure, shortened: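 ICR-JCL mice were given 1×10^6 Sarcoma-180 cells axillary; from 24 hours, compounds in saline were dosed orally at 500 mg/kg/time, 10 times every other day. Tumour nodes were weighed on day 25; inhibition rate = (1-T/C)×100(%) versus untreated tumour-bearing mice.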

cotton pellet granuloma = assay: Anti-granuloma activity (cotton pellet); format: in vivo, rat; details: 7 days; for inhibition in vivo at 1000 mg/kg/day: Rattus norvegicus, po, 192 h, read-out: I.R. against cotton pellet edema; for I.R. against cotton pellet edema: oral, 1000 mg/kg/day
Procedure, shortened: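 Rats (6/group) implanted dorsally with two 30±1 mg cotton pellets; compounds given orally in distilled water at 1000 mg/kg/day once daily for 7 days. Granuloma excised on day 8 and dry weight measured; value is % inhibition of granuloma proliferation.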

acetic acid writhing = assay: Analgetic activity against chemical stimulation of acetic acid (writhing); format: in vivo, mouse (ICR female); details: 30 min before 0.6% acetic acid; for inhibition in vivo at 1000 mg/kg: Mus musculus, po, read-out: I.R. of writhing; for I.R. of writhing: oral, 1000 mg/kg
Excerpt: Rate of inhibition (I.R.) (%)=(1-T/C)×100
T represents the average number of writhing of the group of mice administered with the present compound and injected with acetic acid, and C represents the average number of writhing of the group of mice only injected with acetic acid (control).

ICR-JCL mice = assay: in vivo; details: 7 days observation, 10080 min
[3] = test system: Bacillus subtilis strain M45; assay: Mutagenicity, Rec-Assay, recombination repair deficient strain; details: 10 microgram/disk
Protocol: (§2) Then, a solution or suspension of each of the present compounds was absorbed on a round sheet of paper (disk) of 8 mm in diameter in an amount of 0.04 ml and the disk was placed on the culture plate so as to cover the starting points of the streaks of the micro-organism's culture.

[4] = test system: Bacillus subtilis strain H17; assay: Mutagenicity, Rec-Assay, recombination repair retaining strain; details: 10 microgram/disk
Protocol: as §2

[5] = test system: foot pad reaction to sheep erythrocyte; assay: Delayed-type intracutaneous reaction (foot pad reaction, cellular immunity); format: in vivo, mouse (ICR-JCL); details: same dose (250 mg/kg/day) intraperitoneally
Protocol: In order to know the influence of the present compounds on the cellular immunity, a foot pad reaction test was carried out by using ICR-JCL mice as experimental animals and sheep erythrocyte as an antigen as follows:
Sheep erythrocytes were suspended in a physiological saline solution at a concentration of 10% by volume and 0.2 ml of the suspension was injected into the caudal vein of each mouse for the primary sensitization, and after 7 days, a 40% by volume suspension of the erythrocytes in physiological saline solution was injected into the foot pad of the mouse for the challenge. The thickness of the injected foot pad was measured on the next day. One of the present compounds was administered intraperitoneally at dose of 250 mg/kg/day once a day for continued 5 days around the day of the first sensitization as a center.

| Compound | Reduction of cholesterol level after 3 hrs. (total cholesterol) | Reduction of cholesterol level after 6 hrs. (total cholesterol) | Pseudo-escapting reaction pressure [1] | Pseudo-escapting reaction time [1] | inhibition in vivo at 1000 mg/kg/day (exudation) | inhibition in vivo at 1000 mg/kg [2] | LD50 at 168 h (in vivo) | inhibition in vivo at 1000 mg/kg (carrageenin edema) | Reduced level of blood pressure after 3 hrs. (blood pressure) | Reduced level of blood pressure after 6 hrs. (blood pressure) | Reduction of beta-lipoprotein level after 3 hrs. (beta-lipoprotein) | Reduction of beta-lipoprotein level after 6 hrs. (beta-lipoprotein) | Reduced level of blood sugar after 3 hrs. (level of blood sugar) | Reduced level of blood sugar after 6 hrs. (level of blood sugar) | inhibition in vivo at 500 mg/kg (Sarcoma-180) | inhibition in vivo at 1000 mg/kg/day (cotton pellet granuloma) | inhibition in vivo at 1000 mg/kg (acetic acid writhing) | further results |
| --- | --- | --- | --- | --- | --- | --- | --- | --- | --- | --- | --- | --- | --- | --- | --- | --- | --- | --- |
| O=C(OCC1CCCCC1)c1ccc(NC2O[C@H](CO)[C@@H](O)[C@H](O)[C@H]2O)cc1 (stereo partly drawn) [Compound 24, hexahydrobenzyl p-aminobenzoate-N-D-glucoside] | 2 mg/dL | 32 mg/dL | 85 mmHg | 42 s | 8.7% | 48% | 12100 mg/kg | 10.6% | 19 mm Hg | 21 mm Hg | 95 mg/dL | 111 mg/dL | 101 mg/dL | 145 mg/dL | 40% | 16.9% | 41% |  |
| C[C@@H]1OC(Nc2ccc(C(=O)OCC3CCCCC3)cc2)[C@H](O)[C@H](O)[C@H]1O (stereo partly drawn) [Compound 25, hexahydrobenzyl p-aminobenzoate-N-L-rhamnoside] | -3 mg/dL | 44 mg/dL | 93 mmHg | 44 s | 22.3% | 54% | 9400 mg/kg | 18.1% | 16 mm Hg | 18 mm Hg | 95 mg/dL | 106 mg/dL | 88 mg/dL | 127 mg/dL | 50% | 6.5% | 50% |  |
| COC(=O)Cc1ccc(NC2O[C@@H](C)[C@H](O)[C@@H](O)[C@H]2O)cc1 (stereo partly drawn) [Compound 26, methyl p-aminophenylacetate-N-L-rhamnoside] | -3 mg/dL | 51 mg/dL | 92 mmHg | 41 s | 17.7% | 60% | 11200 mg/kg | 5.3% | 20 mm Hg | 23 mm Hg | 123 mg/dL | 133 mg/dL | 90 mg/dL | 136 mg/dL | 45% | 24.1% | 34% |  |
| C[C@@H]1OC(Nc2ccc(CC(=O)O)cc2)[C@H](O)[C@H](O)[C@H]1O (stereo partly drawn) [Compound 28, sodium p-aminophenylacetate-N-L-rhamnoside] |  |  | 87 mmHg | 38 s |  |  |  |  | 25 mm Hg | 19 mm Hg |  |  | 92 mg/dL | 77 mg/dL |  |  |  | Reduction of cholesterol level after 3 hrs. (total cholesterol; 300 mg/kg): 5 mg/dL; Reduction of cholesterol level after 6 hrs. (total cholesterol; 300 mg/kg): 25 mg/dL; I.R. against exudation (exudation): 6.1%; LD50, acute oral toxicity (ICR-JCL mice): 11100 mg/kg; I.R. against carrageenin edema (carrageenin edema): 8.3%; Reduction of beta-lipoprotein level after 3 hrs. (beta-lipoprotein; 300 mg/kg): 101 mg/dL; Reduction of beta-lipoprotein level after 6 hrs. (beta-lipoprotein; 300 mg/kg): 100 mg/dL; Antitumour activity, inhibiting rate (I.R.) (Sarcoma-180): 45%; I.R. against cotton pellet edema (cotton pellet granuloma): 20.6%; I.R. of writhing (acetic acid writhing): 25% |
| C[C@@H]1OC(Nc2ccc(CC(=O)O)cc2)[C@H](O)[C@H](O)[C@H]1O (stereo partly drawn) [Compound 29, potassium p-aminophenylacetate-N-L-rhamnoside] |  |  | 84 mmHg | 41 s |  |  |  |  | 21 mm Hg | 17 mm Hg |  |  | 88 mg/dL | 71 mg/dL |  |  |  | Reduction of cholesterol level after 3 hrs. (total cholesterol; 300 mg/kg): 3 mg/dL; Reduction of cholesterol level after 6 hrs. (total cholesterol; 300 mg/kg): 40 mg/dL; I.R. against exudation (exudation): 5.8%; LD50, acute oral toxicity (ICR-JCL mice): 10000 mg/kg; I.R. against carrageenin edema (carrageenin edema): 9.3%; Reduction of beta-lipoprotein level after 3 hrs. (beta-lipoprotein; 300 mg/kg): 95 mg/dL; Reduction of beta-lipoprotein level after 6 hrs. (beta-lipoprotein; 300 mg/kg): 121 mg/dL; Antitumour activity, inhibiting rate (I.R.) (Sarcoma-180): 38%; I.R. against cotton pellet edema (cotton pellet granuloma): 15.9%; I.R. of writhing (acetic acid writhing): 26% |
| NC[C@H]1O[C@H](O[C@H]2[C@H](O)[C@@H](O[C@H]3O[C@H](CO)[C@@H](O)[C@H](N)[C@H]3O)[C@H](N)C[C@@H]2N)[C@H](O)[C@@H](O)[C@@H]1O [Kanamycin] |  |  |  |  |  |  |  |  |  |  |  |  |  |  |  |  |  | Length of growth inhibition M45 [3]: 6 mm; Difference of growth inhibition (M45, H17) ([3]; M45 minus H17): 3 mm; Length of growth inhibition H17 [4]: 3 mm |
| CO[C@@]12[C@H](COC(N)=O)C3=C(C(=O)C(C)=C(N)C3=O)N1C[C@@H]1N[C@@H]12 [Mitomycin C, mitomycin C] |  |  |  |  |  |  |  |  |  |  |  |  |  |  |  |  |  | mortality in foot pad reaction test [5]: died |
